According to PMC12221116, “Novel Quinazolinones Active against Multidrug‐Resistant Mycobacterium Tuberculosis: Synthesis, Antimicrobial Evaluation, and in Silico Exploration of Penicillin‐Binding Protein 1A as a Potential Target” (Chemmedchem, 2025):
In brackets after ≈: the same amount, converted by molar mass. Read-outs that look alike come from different tables or passages of the source.

Tests used:
Mtb H37Rv = experiment: Microplate Alamar Blue assay, MIC; assay type: cell-based, Mycobacterium tuberculosis; conditions: for MIC: Mycobacterium tuberculosis, H37RV
Mtb H37Ra = experiment: Microdilution broth resazurin assay, MIC; assay type: cell-based, Mycobacterium tuberculosis
M. smegmatis = experiment: Microdilution broth resazurin assay, MIC; assay type: cell-based, Mycolicibacterium smegmatis
M. aurum = experiment: Microdilution broth resazurin assay, MIC; assay type: cell-based, Mycolicibacterium aurum
MRC-5 [1] = conditions: cytotoxicity
M. avium = experiment: Microdilution broth resazurin assay, MIC; assay type: cell-based, Mycobacterium avium
HepG2 [2] = conditions: cytotoxicity
M. kansasii = experiment: Microplate Alamar Blue assay, MIC; assay type: cell-based, Mycobacterium kansasii; conditions: for MIC: Mycobacterium kansasii, read-out: Antimycobacterial Activity MIC M. kans.
MRC-5 [3] = experiment: cells; conditions: Homo sapiens
HepG2 [4] = experiment: cells; conditions: Homo sapiens
[5] = test system: Trichophyton interdigitale ATCC 9533, CCM 8377; experiment: Antifungal microdilution broth, quality standards; assay type: cell-based; conditions: 120 h; for MIC: read-out: MIC, visual detection, Trichophyton interdigitale
[6] = test system: Candida tropicalis ATCC 750, CCM 8264; experiment: Antifungal microdilution broth, quality standards; assay type: cell-based; conditions: 24 h; for MIC: read-out: MIC, visual detection, Candida tropicalis
[7] = test system: Candida albicans ATCC 24433, CCM 8320; experiment: Antifungal microdilution broth, quality standards; assay type: cell-based; conditions: 24 h
[8] = test system: Aspergillus fumigatus ATCC 204305; experiment: Antifungal microdilution broth, quality standards; assay type: cell-based; conditions: ATCC204305, 48 h; for MIC: read-out: MIC, visual detection, Aspergillus fumigatus
[9] = test system: Aspergillus flavus CCM 8363; experiment: Antifungal microdilution broth, quality standards; assay type: cell-based; conditions: CCM8363, 48 h; for MIC: read-out: MIC, visual detection, Aspergillus flavus
[10] = test system: Candida parapsilosis ATCC 22019, CCM 8260; experiment: Antifungal microdilution broth, quality standards; assay type: cell-based
[11] = test system: Candida krusei ATCC 6258, CCM 8271; experiment: Antifungal microdilution broth, quality standards; assay type: cell-based
[12] = test system: Lichtheimia corymbifera CCM 8077; experiment: Antifungal microdilution broth, quality standards; assay type: cell-based; conditions: CCM8077, 48 h; for MIC: read-out: MIC, visual detection, Lichtheimia corymbifera
[13] = Table S5 matching pairs series A and B
[14] = read-out: IC50 for MRC-5 [24 h], 24 h incubation
[15] = read-out: IC50 for HepG2 [24 h], 24 h incubation
[16] = Microplate Alamar Blue assay, read-out: Antimycobacterial Activity MIC Mtb H37Rv
[17] = read-out: Antimycobacterial Activity MIC Mtb H37Rv, Table S5 matching pairs series A and B
[18] = Mycobacterium tuberculosis, H37RA, read-out: Antimycobacterial Activity MIC Mtb H37Ra
[19] = MRC5, 24 h, read-out: IC50 for MRC-5 [24 h]
[20] = MRC5, 72 h, read-out: IC50 for MRC-5 [72 h]
[21] = HepG2, 24 h, read-out: IC50 for HepG2 [24 h]
[22] = HepG2, 72 h, read-out: IC50 for HepG2 [72 h]
[23] = Mycolicibacterium smegmatis; read-out: Antimycobacterial Activity MIC M. smeg.
[24] = Mycolicibacterium aurum; read-out: Antimycobacterial Activity MIC M. aurum
[25] = Mycobacterium avium; read-out: Antimycobacterial Activity MIC M. avium

COc1cccc(Cn2c(C)nc3ccccc3c2=O)c1 [Compound 2]
Antimycobacterial Activity MIC Mtb H37Rv (Mtb H37Rv; Microplate Alamar Blue assay): 100 µg/mL | Antimycobacterial Activity MIC Mtb H37Ra (Mtb H37Ra): 62.5 µg/mL | Antimycobacterial Activity MIC Mtb H37Ra (Mtb H37Ra; [13]): 62.5 µg/mL | Antimycobacterial Activity MIC M. smeg. (M. smegmatis): 250 µg/mL | Antimycobacterial Activity MIC M. smeg. (M. smegmatis; [13]): 250 µg/mL | Antimycobacterial Activity MIC M. aurum (M. aurum): 125 µg/mL | Antimycobacterial Activity MIC M. aurum (M. aurum; [13]): 125 µg/mL | IC50 (MRC-5 [1]; [14]): > 300 µM | IC50 (MRC-5 [1]; read-out: IC50 for MRC-5 [72 h], 72 h incubation): 215 ± 24 µM | Antimycobacterial Activity MIC M. avium (M. avium): 62.5 µg/mL | Antimycobacterial Activity MIC M. avium (M. avium; [13]): 62.5 µg/mL | IC50 (HepG2 [2]; [15]): 305 ± 3 µM | IC50 (HepG2 [2]; read-out: IC50 for HepG2 [72 h], 72 h incubation): 135 ± 6 µM | Antimycobacterial Activity MIC M. kans. (M. kansasii): 100 µg/mL

Cc1nc2ccccc2c(=O)n1Cc1cccc(Cl)c1 [Compound 6]
Antimycobacterial Activity MIC Mtb H37Rv (Mtb H37Rv; Microplate Alamar Blue assay): 50 µg/mL | Antimycobacterial Activity MIC Mtb H37Rv (Mtb H37Rv; [13]): 50 µg/mL | Antimycobacterial Activity MIC Mtb H37Ra (Mtb H37Ra): 31.25 µg/mL | Antimycobacterial Activity MIC Mtb H37Ra (Mtb H37Ra; [13]): 31.25 µg/mL | Antimycobacterial Activity MIC M. smeg. (M. smegmatis): 62.5 µg/mL | Antimycobacterial Activity MIC M. smeg. (M. smegmatis; [13]): 62.5 µg/mL | Antimycobacterial Activity MIC M. aurum (M. aurum): 62.5 µg/mL | Antimycobacterial Activity MIC M. aurum (M. aurum; [13]): 62.5 µg/mL | IC50 (MRC-5 [1]; [14]): 551 ± 19 µM | Antimycobacterial Activity MIC M. avium (M. avium): 31.25 µg/mL | Antimycobacterial Activity MIC M. avium (M. avium; [13]): 31.25 µg/mL | IC50 (HepG2 [2]; [15]): 507 ± 48 µM | Antimycobacterial Activity MIC M. kans. (M. kansasii): 25 µg/mL | Antimycobacterial Activity MIC M. kans. (M. kansasii; [13]): 25 µg/mL

Cc1nc2cc(Cl)ccc2c(=O)n1Cc1cccc(Cl)c1 [Compound 21]
MIC (Mtb H37Rv; [16]): 25 µg/mL (≈ 78.3 µM) | MIC (Mtb H37Rv; [17]): 25 µg/mL (≈ 78.3 µM) | Antimycobacterial Activity MIC Mtb H37Ra (Mtb H37Ra): 15.625 µg/mL | MIC (Mtb H37Ra; [18]): 15.6 µg/mL (≈ 49 µM) | IC50 (MRC-5 [3]; [19]): > 50 µM | IC50 (MRC-5 [3]; [20]): > 50 µM | IC50 (HepG2 [4]; [21]): > 50 µM | IC50 (HepG2 [4]; [22]): > 50 µM | MIC (M. smegmatis; [23]): ≥ 250 µg/mL | Antimycobacterial Activity MIC M. smeg. (M. smegmatis; [13]): ≥ 250 µg/mL | MIC (M. aurum; [24]): ≥ 250 µg/mL | Antimycobacterial Activity MIC M. aurum (M. aurum; [13]): ≥ 250 µg/mL | MIC (M. avium; [25]): ≥ 250 µg/mL | Antimycobacterial Activity MIC M. avium (M. avium; [13]): ≥ 250 µg/mL | MIC (M. kansasii): > 100 µg/mL

Cc1nc2cc(Cl)ccc2c(=O)n1Cc1ccc(Cl)c(Cl)c1 [Compound 24]
MIC (Mtb H37Rv; [16]): 50 µg/mL (≈ 141 µM) | MIC (Mtb H37Rv; [17]): > 100 µg/mL | Antimycobacterial Activity MIC Mtb H37Ra (Mtb H37Ra): 15.625 µg/mL | MIC (Mtb H37Ra; [18]): 15.6 µg/mL (≈ 44.2 µM) | IC50 (MRC-5 [3]; [19]): > 50 µM | IC50 (MRC-5 [3]; [20]): > 50 µM | IC50 (HepG2 [4]; [21]): > 50 µM | IC50 (HepG2 [4]; [22]): > 50 µM | Antimycobacterial Activity MIC M. smeg. (M. smegmatis): ≥125 µg/mL | MIC (M. smegmatis; Mycolicibacterium smegmatis, read-out: Antimycobacterial Activity MIC M. smeg.): ≥ 125 µg/mL | Antimycobacterial Activity MIC M. aurum (M. aurum): ≥125 µg/mL | MIC (M. aurum; Mycolicibacterium aurum, read-out: Antimycobacterial Activity MIC M. aurum): ≥ 125 µg/mL | Antimycobacterial Activity MIC M. avium (M. avium): ≥125 µg/mL | MIC (M. avium; Mycobacterium avium, read-out: Antimycobacterial Activity MIC M. avium): ≥ 125 µg/mL | MIC (M. kansasii): 25 µg/mL (≈ 70.7 µM) | Antimycobacterial Activity MIC M. kans. (M. kansasii; [13]): 25 µg/mL

NNC(=O)c1ccncc1 [INH, isoniazid, reference compound]
MIC (Mtb H37Rv; [16]): 0.2 µg/mL (≈ 1.46 µM) | MIC (Mtb H37Ra; Mycobacterium tuberculosis, H37RA; internal quality controls (standards); read-out: MINIMUM INHIBITORY CONCENTRATION Mycobacterium tuberculosis H37Ra): 0.125 to 0.25 µg/mL (≈ 0.911 to 1.82 µM) | MIC (Mtb H37Ra; Mycobacterium tuberculosis, H37RA; read-out: Antimycobacterial Activity MIC Mtb H37Ra): 0.25 µg/mL (≈ 1.82 µM) | MIC (M. smegmatis; Mycolicibacterium smegmatis, DSM43465; internal quality controls (standards); read-out: MINIMUM INHIBITORY CONCENTRATION Mycolicibacterium smegmatis DSM 43465): 15.6 to 31.2 µg/mL (≈ 114 to 228 µM) | MIC (M. smegmatis; [23]): 15.6 µg/mL (≈ 114 µM) | MIC (M. aurum; Mycolicibacterium aurum, DSM43999; internal quality controls (standards); read-out: MINIMUM INHIBITORY CONCENTRATION Mycolicibacterium aurum DSM 43999): 1.95 to 3.91 µg/mL (≈ 14.2 to 28.5 µM) | MIC (M. aurum; [24]): 3.91 µg/mL (≈ 28.5 µM) | MIC (M. avium; Mycobacterium avium, DSM44156; internal quality controls (standards); read-out: MINIMUM INHIBITORY CONCENTRATION Mycobacterium avium DSM 44156): 500 to 1000 µg/mL (≈ 3650 to 7290 µM) | MIC (M. avium; [25]): 1000 µg/mL (≈ 7290 µM) | MIC (M. kansasii): 25 µg/mL (≈ 182 µM)

C[C@@H]1[C@H](O)[C@@H](C)/C=C/C=C/C=C/C=C/C=C/C=C/C=C/[C@H](O[C@@H]2O[C@H](C)[C@@H](O)[C@H](N)[C@@H]2O)C[C@@H]2O[C@](O)(C[C@@H](O)C[C@@H](O)[C@H](O)CC[C@@H](O)C[C@@H](O)CC(=O)O[C@H]1C)C[C@H](O)[C@H]2C(=O)O [amphotericin B]
IC90 ([5]; 26 °C, read-out: IC90, spectrophotometric detection, Trichophyton interdigitale): 2 µg/mL (≈ 2.16 µM) | MIC ([5]; 26 °C): 2 µg/mL (≈ 2.16 µM) | IC90 ([6]; read-out: IC90, spectrophotometric detection, Candida tropicalis): 1 µg/mL (≈ 1.08 µM) | MIC [6]: 1 µg/mL (≈ 1.08 µM) | IC90 ([7]; read-out: IC90, spectrophotometric detection, Candida albicans): 0.5 µg/mL (≈ 0.541 µM) | IC90 ([8]; read-out: IC90, spectrophotometric detection, Aspergillus fumigatus): 1 µg/mL (≈ 1.08 µM) | MIC [8]: 1 µg/mL (≈ 1.08 µM) | IC90 ([9]; read-out: IC90, spectrophotometric detection, Aspergillus flavus): 8 µg/mL (≈ 8.66 µM) | MIC [9]: 8 µg/mL (≈ 8.66 µM) | IC90 ([10]; Lodderomyces parapsilosis, 24 h; read-out: IC90, spectrophotometric detection, Candida parapsilosis): 0.5 µg/mL (≈ 0.541 µM) | MIC ([10]; Lodderomyces parapsilosis, 24 h; read-out: MIC, visual detection, Candida parapsilosis): 0.5 µg/mL (≈ 0.541 µM) | IC90 ([11]; Pichia kudriavzevii, 24 h; read-out: IC90, spectrophotometric detection, Candida krusei): 1 µg/mL (≈ 1.08 µM) | MIC ([11]; Pichia kudriavzevii, 24 h; read-out: MIC, visual detection, Candida krusei): 1 µg/mL (≈ 1.08 µM) | IC90 ([12]; read-out: IC90, spectrophotometric detection, Lichtheimia corymbifera): 0.5 µg/mL (≈ 0.541 µM) | MIC [12]: 0.5 µg/mL (≈ 0.541 µM)

C[C@@H](c1ncncc1F)[C@](O)(Cn1cncn1)c1ccc(F)cc1F [voriconazole]
IC50 ([5]; read-out: IC50, spectrophotometric detection, Trichophyton interdigitale): > 16 µg/mL | MIC [5]: > 16 µg/mL | MIC [6]: > 16 µg/mL | IC50 ([7]; read-out: IC50, spectrophotometric detection, Candida albicans): 0.03 µg/mL (≈ 0.0859 µM) | MIC ([7]; read-out: MIC, visual detection, Candida albicans): > 16 µg/mL | IC50 ([8]; read-out: IC50, spectrophotometric detection, Aspergillus fumigatus): 0.5 µg/mL (≈ 1.43 µM) | MIC [8]: 1 µg/mL (≈ 2.86 µM) | IC50 ([9]; read-out: IC50, spectrophotometric detection, Aspergillus flavus): 4 µg/mL (≈ 11.5 µM) | MIC [9]: > 16 µg/mL | IC50 ([10]; Lodderomyces parapsilosis, 24 h, read-out: IC50, spectrophotometric detection, Candida parapsilosis): 0.03 µg/mL (≈ 0.0859 µM) | MIC ([10]; Lodderomyces parapsilosis, 24 h, read-out: MIC, visual detection, Candida parapsilosis): 8 µg/mL (≈ 22.9 µM) | MIC ([11]; Pichia kudriavzevii, 24 h, read-out: MIC, visual detection, Candida krusei): 0.5 µg/mL (≈ 1.43 µM) | IC50 ([12]; read-out: IC50, spectrophotometric detection, Lichtheimia corymbifera): > 16 µg/mL | MIC [12]: > 16 µg/mL
